In patent US20190119649A1, “METHODS FOR GENERATING AUGMENTED STEM CELL-DERIVED BETA CELLS AND USES THEREOF” (President and Fellows of Harvard College, priority 2014, published 2019):

What was measured:
[1] = test system: SC-β cells; assay: Glucose stimulated insulin secretion stimulation index of SC-β cells; assay type: cell-based, human; conditions: R428 together with antioxidant N-acetylcysteine; FIG. 1B and 1C
Description: Stimulation index=[insulin@20 mM glucose]/[insulin@2 mM glucose]. Relative Stim Index=Stim Index/Stim Index of Control.

[2] = test system: SC-β cells; conditions: R428 together with antioxidant N-acetylcysteine; FIG. 1A
From the text: FIG. 2C is a schematic depicting an overview of an exemplary method for generating augmented SC-β cells in accordance with the present invention.
In accordance with aspects of the present invention, the period of time comprises between 7 days and 21 days. […] In accordance with aspects of the present invention, the period of time comprises 3 days, 4 days, 5 days, 6 days, 7 days, 8 days, 9 days, 10 days, 11 days, 12 days, 13 days, 14 days, 15 days, 16 days, 17 days, 18 days, 19 days, 20 days, 21 days, 22 days, 23 days, 24 days, 25 days, 26 days, 27 days, 28 days, 29 days, or 30 days or longer.

Nc1nc(Nc2ccc3c(c2)CC[C@@H](N2CCCC2)CC3)nn1-c1cc2c(nn1)-c1ccccc1CCC2 [Compound R428]
Stimulation index ([insulin@20 mM glucose]/[insulin@2 mM glucose]) relative to SC-β cells generated without AXL inhibitor [1]: greater stimulation index | MAFA gene expression relative to SC-β cells generated without AXL inhibitor and antioxidant [2]: increased MAFA gene expression
